PMC8850458, “The AUTOTAC chemical biology platform for targeted protein degradation via the autophagy-lysosome system” (Nature Communications, 2022)
Where “and” joins values, the source holds several entries; their conditions need not be identical. Equal entries are not always repeated. One block for each compound: values may come before it.

Assays:
Ub^+ and p62^+ puncta = experiment: ICC of Ub (FK2) and p62 puncta in HeLa cells; format: cell-based; details: Fig. 4g; for FK2 (Ub) / p62 colocalization, cells counted per 50 cells (individual replicates): listed as PBA
Procedure: Fig. 4 Targeted autophagic delivery and degradation of misfolded protein cargoes using AUTOTACs with aggregate-binding warhead. a A model illustrating the mode of action of aggregate-targeting AUTOTAC. b Chemical structures of PBA-1105, PBA-1106, Anle138b-F105 and PBA-1105b. c In vitro p62 oligomerization assay in HEK293T cells incubated with the indicated compounds in (b). d WB in HEK293T cells treated with MG132 (1 μM, 24 h), HCQ (10 μM, 24 h), PBA-1105, YTK-1105, and PBA (1 μM, 24 h). e Identical to (d), but with Anle-F105. f ICC of HeLa cells treated with HCQ (10 μM, 24 h), MG132 (2 μM, 18 h) or both in the presence of PBA-1106, YOK-1106 or PBA (1 μM, 24 h). Scale bar, 10 μm. g Quantification of (f) (n = 3, 50 cells). h ICC of HeLa cells treated with Anle138b-F105 (1 μM, 24 h). Scale bar, 10 μm. i Quantification of (h) (n = 3, 50 cells). When indicated, n = 3 biologically independent experiments each counting 50 cells. Data are presented as mean values ± SD where relevant. P-values (from a two-sided unpaired t test): ***P < 7.66E−05. Source data are provided with this paper.
Cells were cultured on coverslips coated with poly-L-lysine (Sigma) to observe cellular localization of proteins. Using 4% paraformaldehyde in PBS (pH 7.4), the cells were fixed for 15 min at room temperature and washed three times for 5 min with PBS. After fixing, the cells were permeabilized with 0.5% Triton X-100 in PBS solution for 15 min and washed three times with PBS for 5 min. The cells were blocked containing 2% BSA in PBS solution for 1 h at room temperature. Subsequently, the cells were incubated with primary antibody diluted in 2% BSA/PBS solution overnight at 4 °C, followed by washing the cells three times for 10 min with PBS and incubated with Alexa Fluor-conjugated secondary antibody diluted in 2% BSA/PBS for 30 min at room temperature. Using a DAPI-containing mounting medium (Vector Laboratories), the coverslips were mounted on glass slides. Confocal images were taken by laser scanning confocal microscope 510 Meta (Zeiss) and analyzed by Zeiss LSM Image Browser (ver. 4.2.0.121). […] Quantification results are shown as mean ± S.D. or S.E.M. of three independent experiments

[1] = PK parameters in ICR mice; format: in vivo; details: single injection
ACHN cells = experiment: WST-based cell viability assay in ACHN cells; details: for WST assay raw reading / WST assay viability relative to con = 100: ACHN, duplicates
androgen receptor (AR) = target: T1, androgen receptor (AR) (Homo sapiens, UniProt P10275, T878A); experiment: Western blot degradation of AR in LNCaP cells; format: cell-based; details: for DC50: LNCaP prostate cancer cells; for AR normalized to control, AVG % / AR normalized to GAPDH and to control, percentage: LncaP; for AR normalized to GAPDH and to control, percentage: single experiments, listed as Vinclo.-2204
T1 construct: Targeted autophagic degradation of endogenous oncoproteins by AUTOTAC; endogenous in cells; host or cells: LNCaP
T1 sequence (P10275 1-920 T878A): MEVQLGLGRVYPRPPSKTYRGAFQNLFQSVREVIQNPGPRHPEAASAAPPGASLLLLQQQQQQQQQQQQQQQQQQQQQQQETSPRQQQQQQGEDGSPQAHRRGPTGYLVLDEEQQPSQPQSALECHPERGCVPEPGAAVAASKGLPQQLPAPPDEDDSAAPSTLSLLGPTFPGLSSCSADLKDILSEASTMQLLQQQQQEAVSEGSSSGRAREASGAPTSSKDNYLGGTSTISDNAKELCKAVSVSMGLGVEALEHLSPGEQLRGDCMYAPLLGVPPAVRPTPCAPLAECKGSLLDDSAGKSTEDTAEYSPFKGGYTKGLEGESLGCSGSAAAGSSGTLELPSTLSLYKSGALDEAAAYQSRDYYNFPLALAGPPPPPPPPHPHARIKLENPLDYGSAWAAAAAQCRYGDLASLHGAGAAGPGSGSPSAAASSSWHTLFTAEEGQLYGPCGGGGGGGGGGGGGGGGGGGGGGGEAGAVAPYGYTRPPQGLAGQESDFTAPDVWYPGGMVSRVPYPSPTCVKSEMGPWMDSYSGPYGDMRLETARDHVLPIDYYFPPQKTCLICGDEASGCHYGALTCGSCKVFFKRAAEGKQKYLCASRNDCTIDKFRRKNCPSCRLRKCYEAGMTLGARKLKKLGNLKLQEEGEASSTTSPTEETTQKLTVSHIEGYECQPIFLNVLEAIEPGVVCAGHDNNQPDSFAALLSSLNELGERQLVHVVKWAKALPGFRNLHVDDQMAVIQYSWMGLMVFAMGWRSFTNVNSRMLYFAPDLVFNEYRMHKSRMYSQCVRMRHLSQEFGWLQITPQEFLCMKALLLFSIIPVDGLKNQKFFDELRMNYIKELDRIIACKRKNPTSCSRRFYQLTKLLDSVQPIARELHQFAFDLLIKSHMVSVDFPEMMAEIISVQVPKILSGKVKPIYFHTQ
Procedure: Adherent cells were washed with phosphate-buffered saline (PBS) and cell pellets were lysed in SDS-based sample buffer (277.8 mM Tris-HCI, pH 6.8, 4.4% LDS, 44.4% (v/v) glycerol) containing beta-mercaptoethanol. Alternatively, cell pellets or protein supernatants were lysed in 5X Laemmli sample buffer. Whole-cell lysates were separated using SDS-PAGE, and transferred onto polyvinyllidene difluoride membranes at 100 V for 2 h at 4 °C. The membrane was incubated with a blocking solution consisting 4% skim milk in PBS solution for 30 min at room temperature and incubated with primary antibodies overnight, followed by incubation with host-specific HRP-conjugated secondary antibodies (1:10000 dilution). For signal detection, the membrane was developed with a mixture of ECL solution (Thermo Fisher Scientific) using X-ray films. Densitometry of developed bands was measured and analyzed with ImageJ (NIH, Bethesda).

Structure (SMILES): O=C(O)CCCc1ccccc1 [4-PBA, 4-phenylbutyric acid]
FK2 (Ub) / p62 colocalization, AVG of cells per 50 cells (Ub^+ and p62^+ puncta; no co-treatment (con)): 6.333
FK2 (Ub) / p62 colocalization, percentage AVG (Ub^+ and p62^+ puncta; no co-treatment (con)): 12.6667 percentage
FK2 (Ub) / p62 colocalization, cells counted per 50 cells (individual replicates) (Ub^+ and p62^+ puncta; no co-treatment (con), count out of 50 cells): 7 and 9 and 3
FK2 (Ub) / p62 colocalization, AVG of cells per 50 cells (Ub^+ and p62^+ puncta; with HCQ): 19
FK2 (Ub) / p62 colocalization, percentage AVG (Ub^+ and p62^+ puncta; with HCQ): 38 percentage
FK2 (Ub) / p62 colocalization, cells counted per 50 cells (individual replicates) (Ub^+ and p62^+ puncta; with HCQ, count out of 50 cells): 25 and 15 and 17
FK2 (Ub) / p62 colocalization, AVG of cells per 50 cells (Ub^+ and p62^+ puncta; with MG132): 24
FK2 (Ub) / p62 colocalization, percentage AVG (Ub^+ and p62^+ puncta; with MG132): 48 percentage
FK2 (Ub) / p62 colocalization, AVG of cells per 50 cells (Ub^+ and p62^+ puncta; with MG132+HCQ): 35.3333
FK2 (Ub) / p62 colocalization, percentage AVG (Ub^+ and p62^+ puncta; with MG132+HCQ): 70.6667 percentage
FK2 (Ub) / p62 colocalization, cells counted per 50 cells (individual replicates) (Ub^+ and p62^+ puncta; with MG132+HCQ, count out of 50 cells): 32 and 39 and 35
FK2 (Ub) / p62 colocalization, cells counted per 50 cells (individual replicates) (Ub^+ and p62^+ puncta; with MG132, count out of 50 cells): 13 and 33 and 26

Structure (SMILES): O=C(CCCc1ccccc1)NCCOCCOCCOCCNCc1ccc(OCc2ccccc2)c(OCc2ccccc2)c1 [PBA-1105]
exposure [1]: good albeit rapidly metabolized exposure

Structure (SMILES): O[C@H](CNCCOCCOCCOc1ccc(-c2c(-c3ccccc3)nn3c(C(F)(F)F)cc(C(F)(F)F)nc23)cc1)COc1ccc(OCc2ccccc2)c(OCCCc2ccccc2)c1 [PHTPP-1304]
higher cytotoxicity than p62-binding ligand or TBL (ACHN cells; ACHN cells): ~ 5 fold
WST assay raw reading (ACHN cells; 0.01uM): 1.001 and 0.98
WST assay viability relative to con = 100 (ACHN cells; 0.01uM): 98.3465
WST assay raw reading (ACHN cells; 0.1uM): 1.009 and 1.004
WST assay viability relative to con = 100 (ACHN cells; 0.1uM): 101.115
WST assay raw reading (ACHN cells; 1uM): 0.961 and 0.962
WST assay viability relative to con = 100 (ACHN cells; 1uM): 96.2699
WST assay raw reading (ACHN cells; 10uM): 0.146 and 0.145
WST assay viability relative to con = 100 (ACHN cells; 10uM): 2.019
WST assay raw reading (ACHN cells; 50uM): 0.234 and 0.222
WST assay viability relative to con = 100 (ACHN cells; 50uM): 10.9017
WST assay raw reading (ACHN cells; 100uM): 0.256 and 0.273
WST assay viability relative to con = 100 (ACHN cells; 100uM): 16.7852

DC50 (androgen receptor (AR)): ~200 nM
DC50 (androgen receptor (AR); listed as Vinclozolin-2204): 211 nM
AR normalized to control, AVG % (androgen receptor (AR); 10 nM): 98.914%
AR normalized to GAPDH and to control, percentage (androgen receptor (AR); 10 nM): 90.6238% and 111.624% and 94.4939%
AR normalized to control, AVG % (androgen receptor (AR); 50 nM): 121.781%
AR normalized to GAPDH and to control, percentage (androgen receptor (AR); 50 nM): 119.329% and 128.663% and 117.351%
AR normalized to control, AVG % (androgen receptor (AR); 100 nM): 60.0788%
AR normalized to GAPDH and to control, percentage (androgen receptor (AR); 100 nM): 61.0357% and 62.8026% and 56.3981%
AR normalized to control, AVG % (androgen receptor (AR); 0.5 uM): 19.2601%
AR normalized to GAPDH and to control, percentage (androgen receptor (AR); 0.5 uM): 14.6016% and 23.3958% and 19.7827%
AR normalized to control, AVG % (androgen receptor (AR); 1 uM): 23.6569%
AR normalized to control, AVG % (androgen receptor (AR); 2.5 uM): 22.3824%
AR normalized to control, AVG % (androgen receptor (AR); 10 uM): 6.006%
AR normalized to GAPDH and to control, percentage (androgen receptor (AR); 10 uM): 9.375% and 3.388% and 5.255%
Structure (SMILES): C=CC(C)(O)C(=O)N(C(=O)NCCOCCOCCNCC(O)COc1ccc(OCCc2ccccc2)c(OCCc2ccccc2)c1)c1cc(Cl)cc(Cl)c1 (stereo not shown) [VinclozolinM2-2204]
